The target of experiment [1] is phosphorylated ERBB2 (pERBB2) (Homo sapiens (Human), UniProt P04626). Kind of experiment: Detection of phosphorylated ERBB2 (pERBB2) by ELISA in BT-474 cells. Conditions: four hours incubation with compound. Type of experiment: cell-based. On the procedure: BT-474 cells were seeded into a 96-well at 2.0*10^4cells/100 μl/well. Compounds were dissolved and serially diluted in DMSO. The compounds were then were added, mixed, and incubated for four hours at 37° C., 5% CO2. […] Following the four hour incubation with compounds, cell lysates were prepared. Plates were centrifuged for 5 min at 3000 RPM, and supernatant was removed from each well. Cells were washed 3 times by resuspension in 150 μl PBS, followed by centrifugation and removal of the supernatant, as above. 100 μl of cell lysis buffer (Boston BioProducts, cat #BP-115D) supplied with 1×complete ULTRA cocktail inhibitor (Thermo ScientificTM, cat #78443) was then added to the washed cells. Cells were incubated with lysis buffer for 1 hour at 4° C., and then stored at -80° C. Enzyme-linked immunosorbent assays (ELISA) were performed to measure phosphorylated ERBB2 levels. […] The next day, plates were washed with PBS+0.05% Tween20 (PBST). 150 μl of 5% BSA blocking solution was added for 1 hour at room temperature, with shaking. Plates were washed with PBST. Cell lysates were thawed and 100 μl of lysate was added to the ELISA plate. The plates were incubated for 2 hours at room temperature, with shaking. ELISA plates were then washed with PBST and 100 μl of an HRP-labeled detection antibody that binds phosphorylated tyrosine (R&D Systems, cat #841913) was added to each well. Plates were incubated for 1 hour at room temperature, with shaking. Plates were then washed with PBST, and 100 μl TMB substrate solution (R&D Systems, cat #DY999) was added. Plate were incubated in the dark for 20 minutes at room temperature. 50 μl of Stop solution (R&D Systems, cat #DY994) (50 μl) was added to each well and mixed. […] The remaining kinase activity by calculated using the following formula: % Relative activity=100×([…]). The low and high control values (“LC” and “HC”) were generated from lysate from wells without cells or with cells treated with 0.1% DMSO, respectively.

The target in experiment [2] is phosphorylated EGFR (pEGFR) (Homo sapiens (Human), UniProt P00533). Kind of experiment: Detection of phosphorylated EGFR (pEGFR) by AlphaLISA in A431 cells. As to conditions: A431 cells (10% FBS), 4 hours incubation, EGF 30 ng/mL for 10 minutes. In kind it is cell-based. On the procedure: […] were performed to measure phosphorylated EGFR levels using A431 cells (10% FBS). A431 (1.0*10^4cells/40 μl/well) cells were seeded in 384 well. Compounds were dissolved in DMSO, serially diluted in DMSO and then were added, mixed, and incubated for 4 hours at 37° C., […]. Following the 4-hours incubation, cells were stimulated for 10 minutes with EGF (Invitrogen, cat #PHG0311) at a final concentration of 30 ng/mL in the incubator. The media was aspirated and cells were lysed in 10 μL lysis buffer with protease and phosphatase inhibitors (PerkinElmer, cat #ALSU-PEGFR-A50K). The plates were placed on a shaker for 5 minutes and then incubated for 30 min at 4° C. for complete lysis. The lysate was transferred to an Optiplate (Perkin Elmer, cat #6007290).
Acceptor mix (PerkinElmer, cat #ALSU-PEGFR-A50K) was prepared just before use and 5 μL was dispensed to all the wells, followed by a 1.5-2 h incubation at room temperature in dark. The donor mix (PerkinElmer, cat #ALSU-PEGFR-A50K) was prepared under low light conditions prior to use and 5 μl of donor mix was added to all the wells under subdued lighting or green filters. The plates were placed on a shaker for 5 min, sealed, and incubated overnight at room temperature in dark. Plates were read on the Envision (PerkinElmer) using standard AlphaLISA settings.
The percentage of inhibition on EGFR phosphorylation was calculated following equation: % Inhibition=100×(LumHC−LumSample)/(LumHC−LumLC). The low and high controls (LC/HC) are generated from lysate from wells with cells treated with DMSO or […] Staurosporine (BioAustralis, cat #BIA-S1086), […]. IC50 values were calculated by fitting the Curve using XLfit (v5.3.1.3), equation 201: Y=Bottom+(Top−Bottom)/(1+10^((LogIC50−X)*HillSlope)).
Background: Bead proximity is the source of the signal in Alpha formats.

Bounds are passed on as bounds.

Sequence of phosphorylated EGFR (pEGFR) (P00533 25-1210): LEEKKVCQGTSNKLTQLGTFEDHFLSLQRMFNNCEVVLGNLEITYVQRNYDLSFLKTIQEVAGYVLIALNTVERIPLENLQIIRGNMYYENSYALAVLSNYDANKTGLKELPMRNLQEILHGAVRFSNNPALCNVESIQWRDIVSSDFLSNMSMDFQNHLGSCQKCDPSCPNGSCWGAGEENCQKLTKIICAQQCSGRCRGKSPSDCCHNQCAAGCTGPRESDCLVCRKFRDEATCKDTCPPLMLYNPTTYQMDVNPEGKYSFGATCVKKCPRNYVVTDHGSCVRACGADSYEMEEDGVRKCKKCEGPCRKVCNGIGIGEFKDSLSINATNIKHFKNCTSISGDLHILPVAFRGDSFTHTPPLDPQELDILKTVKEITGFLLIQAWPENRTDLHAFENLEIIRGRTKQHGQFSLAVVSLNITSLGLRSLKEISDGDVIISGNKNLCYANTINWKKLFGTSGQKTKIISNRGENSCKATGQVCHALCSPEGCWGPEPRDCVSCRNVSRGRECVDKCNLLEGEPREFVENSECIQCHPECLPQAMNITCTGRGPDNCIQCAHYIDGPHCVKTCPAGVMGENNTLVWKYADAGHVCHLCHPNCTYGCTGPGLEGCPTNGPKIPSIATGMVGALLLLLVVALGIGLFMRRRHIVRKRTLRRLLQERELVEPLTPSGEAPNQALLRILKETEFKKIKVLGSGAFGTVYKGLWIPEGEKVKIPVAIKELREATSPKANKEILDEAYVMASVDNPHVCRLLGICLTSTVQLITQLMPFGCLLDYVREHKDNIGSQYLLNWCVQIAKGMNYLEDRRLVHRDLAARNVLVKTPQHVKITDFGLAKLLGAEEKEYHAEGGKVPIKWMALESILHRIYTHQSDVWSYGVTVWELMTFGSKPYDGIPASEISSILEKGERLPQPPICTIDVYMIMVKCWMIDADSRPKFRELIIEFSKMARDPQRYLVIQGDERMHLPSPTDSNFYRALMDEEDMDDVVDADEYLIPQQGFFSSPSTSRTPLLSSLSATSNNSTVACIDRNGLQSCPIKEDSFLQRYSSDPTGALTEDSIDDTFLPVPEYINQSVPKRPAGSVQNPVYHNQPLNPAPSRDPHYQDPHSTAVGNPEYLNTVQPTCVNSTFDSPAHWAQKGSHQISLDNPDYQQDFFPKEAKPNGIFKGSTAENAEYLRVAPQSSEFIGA
Sequence of phosphorylated ERBB2 (pERBB2) (P04626 23-1255): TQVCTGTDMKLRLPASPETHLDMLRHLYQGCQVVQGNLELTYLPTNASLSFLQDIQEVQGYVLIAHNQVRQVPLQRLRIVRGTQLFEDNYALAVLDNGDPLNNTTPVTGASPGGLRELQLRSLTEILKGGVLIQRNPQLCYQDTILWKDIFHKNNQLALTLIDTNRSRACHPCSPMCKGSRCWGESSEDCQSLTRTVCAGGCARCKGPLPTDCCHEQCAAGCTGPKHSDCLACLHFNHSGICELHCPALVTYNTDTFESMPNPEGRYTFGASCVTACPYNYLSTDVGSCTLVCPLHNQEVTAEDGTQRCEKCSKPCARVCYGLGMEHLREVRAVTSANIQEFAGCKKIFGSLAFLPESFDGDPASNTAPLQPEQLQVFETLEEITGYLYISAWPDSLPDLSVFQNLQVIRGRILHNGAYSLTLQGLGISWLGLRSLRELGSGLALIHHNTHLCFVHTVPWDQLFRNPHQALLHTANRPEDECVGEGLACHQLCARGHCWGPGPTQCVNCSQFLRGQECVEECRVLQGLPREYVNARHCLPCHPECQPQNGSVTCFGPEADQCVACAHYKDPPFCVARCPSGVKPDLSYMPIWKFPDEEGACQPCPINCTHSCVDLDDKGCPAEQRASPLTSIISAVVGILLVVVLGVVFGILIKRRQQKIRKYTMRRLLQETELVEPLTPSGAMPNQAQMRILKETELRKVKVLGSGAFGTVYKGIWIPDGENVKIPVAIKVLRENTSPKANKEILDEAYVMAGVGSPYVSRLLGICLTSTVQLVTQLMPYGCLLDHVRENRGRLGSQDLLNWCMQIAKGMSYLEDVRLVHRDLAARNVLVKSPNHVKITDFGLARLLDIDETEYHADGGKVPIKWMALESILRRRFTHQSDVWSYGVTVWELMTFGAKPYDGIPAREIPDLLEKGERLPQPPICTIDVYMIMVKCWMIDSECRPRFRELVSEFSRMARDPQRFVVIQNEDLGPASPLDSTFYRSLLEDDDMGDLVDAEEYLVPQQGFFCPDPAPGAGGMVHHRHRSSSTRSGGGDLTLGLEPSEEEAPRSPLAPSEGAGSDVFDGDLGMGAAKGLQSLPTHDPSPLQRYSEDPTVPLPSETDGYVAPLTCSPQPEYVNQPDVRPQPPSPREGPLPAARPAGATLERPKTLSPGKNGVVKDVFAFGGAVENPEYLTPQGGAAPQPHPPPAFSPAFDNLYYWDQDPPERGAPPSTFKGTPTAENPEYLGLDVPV

For `Cc1cc(Nc2ncnc3cc4c(nc23)N2CCN(C(=O)/C=C/CN(C)C)C(CO4)C2)ccc1Oc1ccn2ccnc2c1` (stereo in doubt) [Compound 34, (E)-4-(dimethylamino)-1-((10S)-4-((4-(imidazo[1,2-a]pyridin-7-yloxy)-3-methylphenyl)amino)-7,8,10,11-tetrahydro-9H-6,10-methanopyrimido[4′,5′:5,6]pyrido[3,2-b][1,4,7]oxadiazonin-9-yl)but-2-en-1-one], the IC50 in experiment [1] came to 17.7 nM; in experiment [2], 465 nM.
Take `Cc1cc(Nc2ncnc3cc4c(nc23)N2CCN(C(=O)/C=C/[C@@H](C)N(C)C)C(CO4)C2)ccc1Oc1ccn2ncnc2c1` (stereo in doubt) [Compound 29, (4R,E)-1-((10S)-4-((4-([1,2,4]triazolo[1,5-a]pyridin-7-yloxy)-3-methylphenyl)amino)-7,8,10,11-tetrahydro-9H-6,10-methanopyrimido[4′,5′:5,6]pyrido[3,2-b][1,4,7]oxadiazonin-9-yl)-4-(dimethylamino)pent-2-en-1-one]: the figures for the IC50 in experiment [1] and in experiment [2] were 16.8 nM and more than 10000 nM, respectively.
Regarding `Cc1cc(Nc2ncnc3cc4c(cc23)N2CCN(C(=O)/C=C/CN(C)C)C(CO4)C2)ccc1Oc1ccc2c(c1)ncn2C` (stereo in doubt) [Compound 7, (E)-4-(dimethylamino)-1-((10S)-4-((3-methyl-4-((1-methyl-1H-benzo[d]imidazol-5-yl)oxy)phenyl)amino)-7,8,10,11-tetrahydro-9H-6,10-methano[1,4,7]oxadiazonino[3,2-g]quinazolin-9-yl)but-2-en-1-one], the IC50 in experiment [1] was 41.3 nM; in experiment [2], more than 10000 nM.
The corresponding values for `Cc1cc(Nc2ncnc3cc4c(nc23)N2CCN(C(=O)/C=C/CN(C)C)C(CCO4)C2)ccc1Oc1ccn2ncnc2c1` (stereo not drawn) [Compound 52, (E)-1-(4-((4-([1,2,4]triazolo[1,5-a]pyridin-7-yloxy)-3-methylphenyl)amino)-7,8,11,12-tetrahydro-6,10-methanopyrimido[4′,5′:5,6]pyrido[3,2-b][1,4,7]oxadiazecin-9 (10H)-yl)-4-(dimethylamino)but-2-en-1-one] are 635 nM and more than 10000 nM.
On to `Cc1cc(Nc2ncnc3cc4c(nc23)N2CCN(C(=O)/C=C/C3(F)CN(C)C3)C(CO4)C2)ccc1Oc1ccn2ncnc2c1` (stereo in doubt) [Compound 53, (E)-1-((10S)-4-((4-([1,2,4]triazolo[1,5-a]pyridin-7-yloxy)-3-methylphenyl)amino)-7,8,10,11-tetrahydro-9H-6,10-methanopyrimido[4′,5′:5,6]pyrido[3,2-b][1,4,7]oxadiazonin-9-yl)-3-(3-fluoro-1-methylazetidin-3-yl)prop-2-en-1-one], for which the IC50 in experiment [1] was 51.1 nM; in experiment [2], 3390 nM.
Take `CN(C)C/C=C/C(=O)N1CCN2CC1COc1cc3ncnc(Nc4cc(Cl)c(Oc5ccn6ncnc6c5)cc4F)c3nc12` (stereo in doubt) [Compound 43, (E)-1-((10S)-4-((4-([1,2,4]triazolo[1,5-a]pyridin-7-yloxy)-5-chloro-2-fluorophenyl)amino)-7,8,10,11-tetrahydro-9H-6,10-methanopyrimido[4′,5′:5,6]pyrido[3,2-b][1,4,7]oxadiazonin-9-yl)-4-(dimethylamino)but-2-en-1-one]: the IC50 in experiment [1] was 8.69 nM; in experiment [2] it was 1400 nM.
The corresponding values for `Cc1cc(Nc2ncnc3cc4c(nc23)N2CCN(C(=O)/C=C/CN(C)C)C(CO4)C2)ccc1Oc1ccn2ncnc2c1` (stereo in doubt) [Compound 10, (E)-1-((10S)-4-((4-([1,2,4]triazolo[1,5-a]pyridin-7-yloxy)-3-methylphenyl)amino)-7,8,10,11-tetrahydro-9H-6,10-methanopyrimido[4′,5′:5,6]pyrido[3,2-b][1,4,7]oxadiazonin-9-yl)-4-(dimethylamino)but-2-en-1-one] are 5.2 nM and 3040 nM.
Take `CN(C)C/C=C/C(=O)N1CCN2CC1COc1cc3ncnc(Nc4ccc(Oc5ccn6ncnc6c5)cc4)c3nc12` (stereo in doubt) [Compound 31, (E)-1-((10S)-4-((4-([1,2,4]triazolo[1,5-a]pyridin-7-yloxy)phenyl)amino)-7,8,10,11-tetrahydro-9H-6,10-methanopyrimido[4′,5′:5,6]pyrido[3,2-b][1,4,7]oxadiazonin-9-yl)-4-(dimethylamino)but-2-en-1-one]: the IC50 in experiment [1] was 18.5 nM; in experiment [2] it was more than 10000 nM.
For `Cc1cc(Nc2ncnc3cc4c(nc23)N2CCN(C(=O)/C=C/[C@H]3CCCN3C)C(CO4)C2)c(F)cc1Oc1ccn2ncnc2c1` (stereo in doubt) [Compound 41, (E)-1-((10S)-4-((4-([1,2,4]triazolo[1,5-a]pyridin-7-yloxy)-2-fluoro-5-methylphenyl)amino)-7,8,10,11-tetrahydro-9H-6,10-methanopyrimido[4′,5′:5,6]pyrido[3,2-b][1,4,7]oxadiazonin-9-yl)-3-((R)-1-methylpyrrolidin-2-yl)prop-2-en-1-one], the IC50 in experiment [1] was 24.5 nM; in experiment [2], 7300 nM.
The corresponding values for `Cc1cc(Nc2ncnc3cc4c(nc23)N2CCN(C(=O)/C=C/[C@@H]3CCCN3C)C(CO4)C2)ccc1Oc1ccn2ncnc2c1` (stereo in doubt) [Compound 28, (E)-1-((10S)-4-((4-([1,2,4]triazolo[1,5-a]pyridin-7-yloxy)-3-methylphenyl)amino)-7,8,10,11-tetrahydro-9H-6,10-methanopyrimido[4′,5′:5,6]pyrido[3,2-b][1,4,7]oxadiazonin-9-yl)-3-((S)-1-methylpyrrolidin-2-yl)prop-2-en-1-one] are 10.8 nM and 8770 nM.
The corresponding values for `CNC/C=C/C(=O)N1CCN2CC1COc1cc3ncnc(Nc4cc(C)c(Oc5ccn6ncnc6c5)cc4F)c3nc12` (stereo in doubt) [Compound 49, (E)-1-((10S)-4-((4-([1,2,4]triazolo[1,5-a]pyridin-7-yloxy)-2-fluoro-5-methylphenyl)amino)-7,8,10,11-tetrahydro-9H-6,10-methanopyrimido[4′,5′:5,6]pyrido[3,2-b][1,4,7]oxadiazonin-9-yl)-4-(methylamino)but-2-en-1-one] are 31.5 nM and 2650 nM.
Consider `Cc1cc(Nc2ncnc3cc4c(nc23)N2CCN(C(=O)/C=C/[C@H]3CCCN3C)C(CO4)C2)ccc1Oc1ccn2ncnc2c1` (stereo in doubt) [Compound 27, (E)-1-((10S)-4-((4-([1,2,4]triazolo[1,5-a]pyridin-7-yloxy)-3-methylphenyl)amino)-7,8,10,11-tetrahydro-9H-6,10-methanopyrimido[4′,5′:5,6]pyrido[3,2-b][1,4,7]oxadiazonin-9-yl)-3-((R)-1-methylpyrrolidin-2-yl)prop-2-en-1-one], for which the IC50 in experiment [1] came out at 14.4 nM; in experiment [2] it was 5260 nM.

As usually defined, the IC50 is the concentration that inhibits the measured activity by half.

These data come from patent US20230382923A1, “FUSED TETRACYCLIC QUINAZOLINE DERIVATIVES AS INHIBITORS OF ERBB2” (EnLiven Therapeutics, Inc., priority 2021, published 2023).
